# Measured values as given in patent publication US6987093B2 (priority 2001, dated 2006).
# Values joined by “and” are separate entries in the source; they are usually repeats but may differ in a detail not shown here. Equal values may be shown once. Read-outs that look alike come from different tables or passages of the source.
# Assays:
# [1] = test system: H. influenzae; assay: Susceptibility testing of trial H. influenzae isolates; assay type: cell-based, Haemophilus influenzae; settings: NCCLS criteria
# Text: Samples of middle ear fluid were split for storage at a central laboratory and cultured locally. All pathogens isolated locally were subcultured and sent to a central laboratory for confirmation and susceptibility testing, performed by Kirby-Bauer disk-diffusion or MIC testing according to NCCLS standards.
# Cultures were taken for antimicrobial susceptibility testing and bacterial species were identified. Current NCCLS approved breakpoints for MICs and zone sizes were applied to all data irrespective of the breakpoint in use at the time of the study. The isolates from the clinical studies were sent to central laboratories for identification and susceptibility determination. The methods for agar diffusion disk tests are those recommended by NCCLS.
# The susceptibility breakpoints for azithromycin were defined as follows: […]
# [2] = test system: Haemophilus influenzae 54A1100; assay: Murine acute infection (peritonitis) model challenged with Haemophilus influenzae; assay type: in vivo, mouse; settings: for PD50: s.c.
# [3] = test system: S. pneumoniae; assay: Single dose azithromycin pediatric AOM trial, subjects with S. pneumoniae at baseline; assay type: in vivo, human; settings: for patients cured at day 28: 30 mg/kg
# Text: (§1) Children six months to twelve years were enrolled if they had symptoms and signs of acute otitis media (“AOM”) for less than four weeks and middle ear effusion by acoustic reflectometry. Symptoms necessary for enrollment included ear pain or fullness, discharge from the external auditory canal, decreased hearing or fever. On physical examination they must have had one or more of the following: bulging or marked erythema of the tympanic membrane, loss of the normal light reflex or tympanic membrane landmarks, or impaired tympanic mobility on biphasic pneumatic otoscopy. The effusion was to be documented by acoustic reflectometry with an abnormal reading of 3 or higher.
# (§2) Samples of middle ear fluid were obtained by tympanocentesis or, in the case of a perforated tympanic membrane, by swab. Middle ear fluid samples were obtained for culture at baseline. […] Children who vomited within thirty minutes of dosing were redosed.
# (§3) Samples of middle ear fluid were split for storage at a central laboratory and cultured locally.
# (§4) A phone contact occurred on study day 5 to assess for adverse events followed by visits on days 10 and 24–28, at which time detailed clinical assessments were made and adverse events were recorded. Definitions included clinical cure (complete resolution of all signs and symptoms of AOM); improvement (partial resolution of signs and symptoms); or failure (no change or worsening of signs and symptoms, or requirement for additional antibiotic therapy for AOM). Any patient considered to have failed therapy was to have a repeat tympanocentesis.
# (§5) The primary endpoint of the trial was the investigator designated cure rate at Day 24–28 for which a 95% confidence interval was computed using the normal approximation to the binomial distribution. Other endpoints analyzed included the clinical response rate by baseline pathogen at Day 24–28, the overall clinical response at Day 10, the percentage of subjects with individual signs and symptoms, as well as findings from pneumatic otoscopy and acoustic reflectometry. Only Streptococcus pneumoniae, Moraxella catarrhalis and Haemophilus influenzae were considered baseline pathogens for the purposes of these analyses.
# Not all strains are equally virulent and the growth rate and kinetics of infection may influence the outcome. In addition, H. influenzae has been a difficult organism to culture from the middle ear.
# [4] = test system: Haemophilus influenzae 54A1218; assay: Gerbil middle ear (otitis media) infection model, ED50, H. influenzae 54A1218; assay type: in vivo; settings: for ED50: past studies
# [5] = Azithromycin serum pharmacokinetics in mice; assay type: in vivo, mouse; settings: for Cmax / Tmax / AUC(0-t): female, CF-1, mouse, Serum PK, total dose 100 mg/kg oral; for AUC(0-t): read-out: AUC(0-tlast)
# Description: Blood and pulmonary tissue samples were taken starting at 0.5 h post-dose and at predetermined intervals over a 96 h period. […] […] The lower limit of quantification (LLOQ) was 50 ng/ml. […] Interassay variability was <7%. Pharmacokinetic parameters were calculated using the non-compartmental method by WinNonlin 2.1 (Scientific Consulting, Inc.).
# [6] = test system: Haemophilus influenzae 54A1100; assay: Gerbil middle ear (otitis media) infection model, ED50, H. influenzae 54A1100; assay type: in vivo
# [7] = test system: H. influenzae; assay: Study 95-001 otitis media caused by H. influenzae; assay type: in vivo, human; settings: 3-day regimen (10 mg/kg/day); 13 patients; follow-up
# Description: (§6) Specimens for culture and susceptibility testing were obtained from the infected ear by tympanocentesis within 24 h of start of therapy. […] However, the study was evaluated using the breakpoints in the most recent set of guidelines.
# To be a bacteriological cure, the MITT subject had to have a positive culture from the middle ear for S. pneumoniae, H influenzae, or M. catarrhalis. Eradication was defined as presumed eradication of pretreatment pathogen(s) based on signs/symptoms or unavailability of culturable material. All evaluable patients had only one of the bacterial species present at baseline. There was no bacteriological response data collected for 95–001. However, the clinical outcome by bacterial pathogen at follow-up (approximately 28 days after first visit) was collected. For patients with S. pneumoniae as the baseline pathogen, all treatment arms yielded 100% clinical cure when the investigators' evaluations that were missing are not included in the analysis. […] The comparator drug, ceftriaxone, had no failures out of 9 patients.
# [8] = test system: Streptococcus pyogenes 02C0203; assay: Murine acute infection (peritonitis) model challenged with Streptococcus pyogenes; assay type: in vivo, mouse
# [9] = test system: H. influenzae; assay: Single dose azithromycin pediatric AOM trial, subjects with H. influenzae at baseline; assay type: in vivo, human
# Text: as §1, §2, §3, §4
# as §5, with “Only Streptococcus pneumoniae, Moraxella catarrhalis and Haemophilus influenzae were considered baseline pathogens for the purposes of these analyses.” left out
# [10] = test system: H. influenzae; assay: Study 95-001 Kirby-Bauer disk diffusion susceptibility, H. influenzae; assay type: cell-based, Haemophilus influenzae; settings: all H. influenzae organisms isolated
# Description: as §6
# [11] = test system: Mycoplasma pneumoniae; settings: single oral 10 mg/kg dose; only one of several macrolides tested; cited from earlier work
# [12] = oral QD, murine peritonitis model
# [13] = oral QD, gerbil otitis media model
# [14] = 33 mg/kg, 3 days of dosing, 33.3 mg/kg/dose
# [15] = 1 day of dosing, 100 mg/kg/dose
# [16] = 2 days of dosing, 50 mg/kg/dose
smiles,measurement,setting,value
"CC[C@H]1OC(=O)[C@H](C)[C@@H](O[C@H]2C[C@@](C)(OC)[C@@H](O)[C@H](C)O2)[C@H](C)[C@@H](O[C@@H]2O[C@H](C)C[C@H](N(C)C)[C@H]2O)[C@](C)(O)C[C@@H](C)CN(C)[C@H](C)[C@@H](O)[C@]1(C)O [Azithromycin, 9a-aza-9a-methyl-9-deoxo-9a-homoerythromycin A]",susceptibility of isolated H. influenzae to azithromycin,[1],susceptible
same,Oral PD50,[2]; Dosing Regimen 1 day,25.3 (14.3–36.2) mg/kg/day
same,Oral PD50,[2]; Dosing Regimen 2 days,49.9 (41.5–58.5) mg/kg/day
same,Oral PD50,[2]; Dosing Regimen 3 days,181.6 (180.1–183.1) mg/kg/day
same,Mice Surviving/Total,"[2]; mouse, in vivo",0/10 and 6/10 and 10/10 and 9/10 and 1/10 and 5/10
same,PD50,[2]; one therapeutic dose (one day regimen),25.3 mg/kg
same,ED50 One-Day Therapy,[2]; [12],30.3^1 mg/kg/therapy
same,ED50 Three-Day Therapy,[2]; [12],147 mg/kg/therapy
same,ED50 Two-Day Therapy,[2]; [12],48 mg/kg/therapy
same,PD50,"[2]; previously tested, standard dosing paradigm (b.i.d. on day 1)",27 mg/kg
same,clinical cure rate versus susceptible S. pneumoniae isolates,[3]; MICs≦0.25 μg/ml,92.5%
same,strains clinically cured,"[3]; human, in vivo",40%
same,patients cured at day 28,"[3]; human, in vivo",two of these five
same,"Clinical cure at day 28, number of children",[3]; nine children with penicillin resistant S. pneumoniae isolates (MIC≧2 μg/ml),6
same,clinical cure rate versus resistant S. pneumoniae isolates,[3]; resistant isolates,66.7%
same,patients cured at day 28,"[3]; seven patients with mef A isolates (MIC 8 μg/ml), single 30 mg/kg dose",Six of these seven and 6/7
same,ED50 One-Day Therapy,[4]; [13],84 mg/kg/therapy
same,ED50 Three-Day Therapy,[4]; [13],65 mg/kg/therapy
same,ED50 Two-Day Therapy,[4]; [13],53 mg/kg/therapy
same,ED50,[4]; Q.D. 1,83.8 (53.6–114.1) mg/kg/total regimen
same,ED50,[4]; Q.D. 2,53.4 (21.2–85.5) mg/kg/total regimen
same,ED50,[4]; Q.D. 3,65.2 (51–79.4) mg/kg/total regimen
same,"Cmax, single dose vs. the same total dose administered over 3 days",[5]; better when administered as a single dose,3 fold
same,Cmax,[5]; [14],980 ng/mL
same,Tmax,[5]; [14],26 h
same,AUC(0-t),[5]; [14],19800 ng·h/mL
same,Cmax,[5]; [15],2100 ng/mL
same,Tmax,[5]; [15],2 h
same,AUC(0-t),[5]; [15],18800 ng·h/mL
same,Cmax,[5]; [16],1300 ng/mL
same,Tmax,[5]; [16],26 h
same,AUC(0-t),[5]; [16],15900 ng·h/mL
same,ED50,[6]; Dosing Regimen 1 day,138.1 (118.7–157.6) mg/kg/total
same,ED50,[6]; Dosing Regimen 2 days,138.1 (118.7–157.6) mg/kg/total
same,ED50,[6]; Dosing Regimen 3 days,162.9 (140–185.9) mg/kg/total
same,ED50 One-Day Therapy,[6]; [13],138 mg/kg/therapy
same,ED50 Three-Day Therapy,[6]; [13],163 mg/kg/therapy
same,ED50 Two-Day Therapy,[6]; [13],138 mg/kg/therapy
same,ED50,"[6]; past studies, Q.D. 3",162.7 mg/kg/total regimen
same,failures,[7],2
same,Oral PD50,[8]; Dosing Regimen 1 day,1.0 (0.6–1.4) mg/kg/day
same,Oral PD50,[8]; Dosing Regimen 2 days,2.5 (1.8–3.3) mg/kg/day
same,Oral PD50,[8]; Dosing Regimen 3 days,3.8 (3.8–3.9) mg/kg/day
same,Mice Surviving/Total,"[8]; mouse, in vivo",1/10 and 10/10 and 8/10 and 3/10 and 0/10 and 9/10 and 7/10
same,ED50 One-Day Therapy,[8]; [12],0.78^1 mg/kg/therapy
same,ED50 Two-Day Therapy,[8]; [12],1.1 mg/kg/therapy
same,clinical failure (and presumed persistence) rate,"[9]; MITT, thirty-nine evaluable H. influenzae strains",33.3%
same,clinical cure rate overall with PCR-identified H. influenzae cures added,"[9]; TOC, seventeen PCR-identified patients added",76.8%
same,clinical outcome at test of cure of patients with H. influenzae identified by PCR only,[9]; seventeen additional patients,clinically cured
same,zone sizes (agar diffusion),[10],≥ 19 mm
same,susceptibility by agar diffusion (zone size),[10]; NCCLS breakpoint of ≧12 mm,susceptible
same,efficacy,[11],efficacious
